Measurements reported in patent US20110244569A1, “METHOD OF INDUCING PROLIFERATION AND/OR DIFFERENTIATION OF NEURAL PRECURSOR CELLS BY INTRODUCING PROLACTIN OR WNT3A TO ACTIVATE LATENT NEURAL PRECURSOR CELLS” (priority 2008, published 2011).
Structures can show the parent of a compound that is named as a salt.

Assays:
[1] = system: primary hippocampal cells; test: Primary neurosphere culture, hippocampus; type: cell-based, mouse; details: for generation of very large neurospheres (>250 μm) passaged long-term / increase in number of hippocampal neurospheres generated / number of hippocampal neurospheres: 1 ng/mL Wnt3a or 2 ng/mL PRL; for number of hippocampal neurospheres: n=3; for neurosphere number, aged hippocampus: aged (18 month old) hippocampus, n=4
Experimental: The tissue was enzymatically digested with 0.1% trypsin-EDTA (Gibco/Invitrogen, Eugene, Oreg.) for 7 minutes at 37° C., followed by a wash with 0.014% w/v trypsin inhibitor (type I-S from soybean; Sigma-Aldrich Australia, Sydney, Australia) dissolved in Hepes-buffered minimum essential medium (HEM), which consisted of minimum essential medium (Gibco/Invitrogen) supplemented with 16 mM HEPES (Sigma-Aldrich Australia) and 100 units/ml penicillin/streptomycin (Gibco/Invitrogene). The tissue was centrifuged at 100 rcf for 7 minutes, following which the pellet was resuspended in 1 ml neurosphere growth medium, mechanically triturated until smooth, then filtered through a 40 μm cell sieve (Falcon/BD Biosciences Australia, North Ryde, Australia). The neurosphere growth medium consisted of mouse NeuroCult™ NSC Basal Medium plus mouse NeuroCult™ NSC Proliferation Supplements (StemCell Technologies, Vancouver, Canada) with 2% bovine serum albumin (Roche, Basel, Switzerland) and 2 μg/ml heparin (Sigma-Aldrich Australia). The following growth factors were also included: 20 ng/ml purified mouse receptor-grade EGF (BD Biosciences Australia) and 10 ng/ml recombinant bovine FGF-2 (Roche). After centrifugation at 100 rcf for 7 minutes, the cells were plated at a density of approximately one hippocampus, SVZ or cortex or four olfactory bulbs per 96-well plate (Falcon/BD Biosciences Australia) with 200 μl neurosphere medium per well.
The neurosphere growth medium already contained 4.18 mM KCl. […] This level of potassium is around five times that of the normal physiological concentration of potassium, ˜4 mM. Nicardipine (Sigma-Aldrich), when used, was added to a final concentration of 10 μM. BaCl was used as an alternative to KCl in some experiments at a concentration of 1 mM and GABA at 100 μM. Recombinant mouse Wnt3a (R&D Systems) and recombinant mouse prolactin (PRL; R&D Systems) were added instead of KCl in some experiments at concentrations of 1 ng/mL and 2 ng/mL respectively.
(§1) Primary hippocampal cells were incubated for 10 days, and SVZ, olfactory bulb or cortical cells for 7 days, in humidified 5% CO2 to permit neurosphere formation. The primary neurospheres were then counted and collected for passaging or differentiation. Results of the neurosphere counts were expressed as mean±standard error and statistical analysis was performed using a standard t-Test (two sample assuming equal variance).

SVZ cells = test: Primary neurosphere culture, SVZ; type: cell-based, mouse; details: for number of SVZ-derived neurospheres: 1 ng/mL Wnt3a or 2 ng/mL PRL, n=2
Experimental: Adult (6-8 week old) male C57/B16 mice were killed by cervical dislocation, their brains immediately removed and the hippocampus, SVZ, olfactory bulb or cortex dissected. The tissue was enzymatically digested with 0.1% trypsin-EDTA (Gibco/Invitrogen, Eugene, Oreg.) for 7 minutes at 37° C., followed by a wash with 0.014% w/v trypsin inhibitor (type I-S from soybean; Sigma-Aldrich Australia, Sydney, Australia) dissolved in Hepes-buffered minimum essential medium (HEM), which consisted of minimum essential medium (Gibco/Invitrogen) supplemented with 16 mM HEPES (Sigma-Aldrich Australia) and 100 units/ml penicillin/streptomycin (Gibco/Invitrogene). The tissue was centrifuged at 100 rcf for 7 minutes, following which the pellet was resuspended in 1 ml neurosphere growth medium, mechanically triturated until smooth, then filtered through a 40 μm cell sieve (Falcon/BD Biosciences Australia, North Ryde, Australia). The neurosphere growth medium consisted of mouse NeuroCult™ NSC Basal Medium plus mouse NeuroCult™ NSC Proliferation Supplements (StemCell Technologies, Vancouver, Canada) with 2% bovine serum albumin (Roche, Basel, Switzerland) and 2 μg/ml heparin (Sigma-Aldrich Australia). The following growth factors were also included: 20 ng/ml purified mouse receptor-grade EGF (BD Biosciences Australia) and 10 ng/ml recombinant bovine FGF-2 (Roche). After centrifugation at 100 rcf for 7 minutes, the cells were plated at a density of approximately one hippocampus, SVZ or cortex or four olfactory bulbs per 96-well plate (Falcon/BD Biosciences Australia) with 200 μl neurosphere medium per well.
The neurosphere growth medium already contained 4.18 mM KCl. […]
as §1

olfactory bulb cells = test: Primary neurosphere culture, olfactory bulb; type: cell-based, mouse; details: potassium-activated vs control
Experimental: (§2) Adult (6-8 week old) male C57/B16 mice were killed by cervical dislocation, their brains immediately removed and the hippocampus, SVZ, olfactory bulb or cortex dissected. The tissue was enzymatically digested with 0.1% trypsin-EDTA (Gibco/Invitrogen, Eugene, Oreg.) for 7 minutes at 37° C., followed by a wash with 0.014% w/v trypsin inhibitor (type I-S from soybean; Sigma-Aldrich Australia, Sydney, Australia) dissolved in Hepes-buffered minimum essential medium (HEM), which consisted of minimum essential medium (Gibco/Invitrogen) supplemented with 16 mM HEPES (Sigma-Aldrich Australia) and 100 units/ml penicillin/streptomycin (Gibco/Invitrogene). The tissue was centrifuged at 100 rcf for 7 minutes, following which the pellet was resuspended in 1 ml neurosphere growth medium, mechanically triturated until smooth, then filtered through a 40 μm cell sieve (Falcon/BD Biosciences Australia, North Ryde, Australia). […]
as §1

cortical cells = test: Primary neurosphere culture, cortex; type: cell-based, mouse; details: depolarization vs control
Experimental: as §2, §1

hippocampal neurospheres = test: Hippocampal neurosphere passaging; type: cell-based, mouse
Experimental: Primary neurospheres from the unstimulated hippocampus were also passaged as single spheres.
Hippocampal neurosphere cultures were initiated by removing 150 μl of the medium from wells containing single neurospheres, treating with 100 μl 0.1% trypsin-EDTA for 2 minutes at room temperature, followed by washing with 100 μl trypsin inhibitor in HEM. The neurospheres were mechanically triturated until dissociated and replated in well plates in 2 ml of complete medium. Neurospheres were passaged every 10 days by centrifuging the neurospheres, removing the medium and incubating in 1 ml of 0.1% trypsin-EDTA for 2 minutes at room temperature. After the addition of an equal volume of trypsin inhibitor, the neurospheres were centrifuged at 100 rcf for 5 minutes and the supernatant removed. Cells were mechanically triturated in 500 μl of complete medium and trypan blue staining was used to evaluate the number of cells, both viable and total number, on a hemocytometer. The passaged cells were then re-plated with complete medium at a density of 1×10^4 cells/cm^2 in tissue culture flasks (Nunc, Rochester, N.Y.) or tissue culture plates (Falcon/BD Biosciences) as appropriate.

[2] = system: primary hippocampal cells; test: Microarray analysis after KCl depolarization; type: cell-based, mouse; details: following depolarization, P<0.001
Experimental: Hippocampal tissue was dissected and dissociated as described above and incubated either in the presence or absence of 15 mM KCl for 24 hours. Cells were pelleted and total RNA was isolated using the RNeasy mini kit (Qiagen) and quantitated using the Bioanalyzer 2100 (Agilent). aRNA was prepared from 500 ng of RNA using the Message-Amp™-II Biotin Enhanced Kit (Ambion). A total of 15 μg biotinylated aRNA was fragmented and run on a GeneChip mouse Genome 430A 2.0 Array (Affymetrix) in accordance with the manufacturer's instructions.

[3] = system: latent precursor cell population; test: Neurosphere culture of FACS-sorted Emx1-GFP / GFAP-GFP cells; type: cell-based, mouse
Experimental: DCX-GFP, Emx1-GFP and GFAP-GFP mice are from the Mutant Mouse Regional Resource Center, The Gene Expression Nervous System Atlas BAC transgenic project (Gong et al., 2002).
Brains were collected and processed. GFP^+ve cells were separated by fluorescence-activated cell sorting (FACS) using a FACS Vantage cell sorter (BD Biosciences). A wild-type littermate control was used to determine background fluorescence levels. For primary neurosphere cultures the cells were plated at a density of 500 cells/well in 96-well plates (Falcon/BD Biosciences, San Jose, Calif.) with 0.2 ml complete medium per well. Complete medium consisted of mouse NeuroCult™ NSC Basal Medium plus mouse NeuroCult™ NSC Proliferation Supplements (StemCell Technologies,
Vancouver, Canada) with 2% bovine serum albumin (Roche, Basel, Switzerland) and 2 μg/ml heparin (Sigma-Aldrich). The following growth factors were also included: 20 ng/ml purified mouse receptor-grade epidermal growth factor (EGF; BD Biosciences Australia) and 10 ng/ml recombinant bovine basic fibroblast growth factor (FGF-2; Roche). Primary cells were incubated for 7 days in humidified 5% CO2 to permit neurosphere formation. The primary neurospheres were then counted and collected for passaging or differentiation. Results of the neurosphere counts were expressed as mean+ or −standard error and statistical analysis was performed using a standard t-Test (two sample assuming equal variance).

C57BL/6 male mice = test: Pilocarpine-induced seizures; type: in vivo, mouse; details: 350 mg/kg intraperitoneal
Experimental: Seizures were induced in 6-8 week old C57BL/6 male mice by the administration of pilocarpine, a muscarinic cholinergic agonist. Thirty minutes prior to pilocarpine administration, the mice were injected with 2.5 mg/kg of the cholinergic antagonist scopolamine methyl nitrate (Sigma-Aldrich) to reduce peripheral cholinergic effects. They then received intraperitoneal injections of 350 mg/kg pilocarpine hydrochloride (Sigma-Aldrich). […] Seizures were stopped 2 hours after status epilepticus onset, with an intraperitoneal injection of 5 mg/kg diazepam ([…], Parnell Laboratories Sydney, Australia).

SVZ-derived neurospheres = details: cited from earlier work
adult female mice = details: infusion, cited from earlier work
[4] = 10 nM and 30 nM PRL in presence of EGF

Molecule: [Ba+2].[Cl-].[Cl-] [BaCl2, barium chloride]
- increase in numbers of neurospheres ([1]; 1 mM BaCl2): over 2 fold

Molecule: [Cl-].[K+] [KCl, potassium chloride]
- increase in number of neurospheres generated ([1]; 20 mM KCl vs control (4 mM) potassium or sodium osmotic control, adult mouse): over 3 fold
- increase in number of neurospheres, stimulated vs control ([1]; 18 month old hippocampus, depolarizing conditions): over 12 fold
- effect on number of neurospheres generated ([1]; KCl as low as 10 mM and as high as 30 mM): significantly increase the number of neurospheres generated
- optimal depolarizing level ([1]; KCl dose response assay): 15 mM
- further increase of 33 week HD hippocampal precursors ([1]; R6/1 Huntington's disease mice, 33 weeks, potassium depolarization in vitro): could not be further increased
- further stimulation of precursors from mice that underwent SE ([1]; depolarizing levels of potassium added in vitro after status epilepticus): no further stimulatory effect
- decrease in neurosphere number (SVZ cells; potassium-induced depolarization, adult SVZ): approx 40%
- increase in number of olfactory bulb neurospheres (olfactory bulb cells): over 3 fold
- size of activated olfactory-bulb neurospheres (olfactory bulb cells): significant increase in the size
- increase in cortex neurosphere number (cortical cells): over 3 fold
- diameter of stimulated neurospheres capable of long term passage (hippocampal neurospheres; all twenty three): > 110 μm
- large primary spheres that could be expanded in culture for up to 10 passages (hippocampal neurospheres; potassium stimulated, standard conditions 0/113): 23 out of 64
- up-regulation of PRL [2]: 6.4 fold
- up-regulation of Wnt3a [2]: 14.4 fold
- SFU ([3]; Emx1+ve cells + KCL): 1/37
- SFU ([3]; Emx1-ve cells + KCL): 1/10896
- SFU ([3]; GFAP+ve cells + KCL): 1/127
- SFU ([3]; GFAP-ve cells + KCL): 1/2220

Molecule: CC[C@@H]1C(=O)OC[C@@H]1Cc1cncn1C [pilocarpine, pilocarpine hydrochloride]
- mice in which seizures were observed (C57BL/6 male mice): 70%
- seizing mice that entered status epilepticus (C57BL/6 male mice): 35%
- time to status epilepticus after injection (C57BL/6 male mice): 78 ± 43 min

Molecule: Wnt3a
- generation of very large neurospheres (>250 μm) passaged long-term [1]: generation of a number of the very large neurospheres
- increase in number of hippocampal neurospheres generated [1]: 2 fold
- number of hippocampal neurospheres [1]: 204±66.1 % of control
- neurosphere number, aged hippocampus [1]: 580±230 % of control
- number of SVZ-derived neurospheres (SVZ cells): 98.5±4.5 % of control

B1: PRL: recombinant mouse prolactin (PRL; R&D Systems) (protein, UniProt P06879 30-226, looked up)
Prolactin: LPICSAGDCQTSLRELFDRVVILSHYIHTLYTDMFIEFDKQYVQDREFMVKVINDCPTSSLATPEDKEQALKVPPEVLLNLILSLVQSSSDPLFQLITGVGGIQEAPEYILSRAKEIEEQNKQLLEGVEKIISQAYPEAKGNGIYFVWSQLPSLQGVDEESKILSLRNTIRCLRRDSHKVDNFLKVLRCQIAHQNNC
- generation of very large neurospheres (>250 μm) passaged long-term [1]: generation of a number of the very large neurospheres
- increase in number of hippocampal neurospheres generated [1]: 2 fold
- number of hippocampal neurospheres [1]: 217±13 % of control
- neurosphere number, aged hippocampus [1]: 254±23 % of control
- number of SVZ-derived neurospheres (SVZ cells): 100±9 % of control
- effect on number of SVZ-derived neurospheres (SVZ-derived neurospheres; 1 nM PRL): no effect
- increase in number of neurons per neurosphere (SVZ-derived neurospheres; [4]): two-fold
- increase in numbers of SVZ-derived neurospheres (SVZ-derived neurospheres; [4]): up to 35%
- number of neurospheres in vitro, prolactin alone (SVZ-derived neurospheres; without EGF, US 2003/0054998): did not significantly increase
- number of new olfactory interneurons (adult female mice; after 4 weeks): doubled
- BrdU-labeled cells in the forebrain SVZ (adult female mice; US 2003/0054998): increased
- number of proliferating cells in hippocampal dentate gyrus (adult female mice): no effect
